Results: ChEMBL document CHEMBL1201862, “PubChem BioAssay data set” (2004)
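96-well plates; 48 h exposure; 5 concentrations. Endpoints by linear interpolation between flanking doses. Not reached: highest tested concentration assigned. GI50 = concentration required for 50% inhibition of growth.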 Active and inactive are the calls of the source. Rule as the data show it: active = GI50 up to about 1.1 µM and inactive = higher.

Assays:
Assay in all cases: inhibition of tumour cell growth, NCI panel, 48 h
[1] = system: 786-0
[2] = system: A498
[3] = system: ACHN
[4] = system: COLO 205
[5] = system: HCC 2998
[6] = system: HCT-116
[7] = system: MDA-N
[8] = system: MOLT-4
[9] = system: Malme-3M
[10] = system: NCI-H460
[11] = system: OVCAR-8
[12] = system: SF-268
[13] = system: SF-539
[14] = system: SK-MEL-2
[15] = system: SNB-19
[16] = system: U-251
[17] = system: HOP-92
[18] = system: LOX IMVI
[19] = system: OVCAR-4
[20] = system: RPMI-8226

Measured: GI50

O=C(CCCn1ccnc1[N+](=O)[O-])NCCn1ccnc1
inactive: [1] > 100 µM | [2] > 100 µM | [3] > 100 µM | [4] 67 µM | [5] > 100 µM | [6] > 100 µM | [7] > 10 µM | [8] > 100 µM | [9] > 100 µM | [10] > 100 µM | [11] > 100 µM | [12] > 100 µM | [13] > 100 µM | [14] > 100 µM | [15] > 100 µM | [16] > 100 µM

Cc1ccc([N+](=O)[O-])cc1S(=O)(=O)Nc1ccc(C2=NN(C(=O)c3ccccc3)C(c3ccccc3O)C2)cc1 (stereo not given)
inactive: [1] 14.4 µM | [2] 12.9 µM | [3] 15.7 µM | [4] 14.3 µM | [6] 11.4 µM | [17] 12 µM | [18] 18.3 µM | [7] 21.5 µM | [8] 13.6 µM | [9] 12.6 µM | [19] 15.4 µM | [11] 13.9 µM | [20] 11.5 µM | [12] 12.8 µM | [13] 17.3 µM | [14] 16.7 µM | [15] 28.2 µM | [16] 16.5 µM

O=c1[nH]c(=O)n(C2CC(O)C(CO)O2)cc1OCc1ccccc1 (stereo not given)
inactive: [1] > 100 µM | [3] > 100 µM | [4] > 100 µM | [6] > 100 µM | [18] > 100 µM | [7] > 100 µM | [8] > 100 µM | [9] > 100 µM | [10] > 100 µM | [19] > 100 µM | [11] > 100 µM | [20] > 100 µM | [12] > 100 µM | [15] > 100 µM | [16] > 100 µM

CN1C(=O)C(O)CC1c1cccc(C(F)(F)F)c1 (stereo not given)
inactive: [1] > 100 µM | [2] > 100 µM | [3] > 100 µM | [4] > 100 µM | [5] > 100 µM | [6] > 100 µM | [17] > 100 µM | [18] > 100 µM | [8] > 100 µM | [9] > 100 µM | [10] > 100 µM | [19] > 100 µM | [11] > 100 µM | [20] > 100 µM | [12] > 100 µM | [13] > 100 µM | [14] > 100 µM | [15] > 100 µM | [16] > 100 µM

CC1CCC/C1=C(/I)C(=O)c1ccccc1 (stereo not given)
inactive: [1] > 100 µM | [3] > 100 µM | [4] > 100 µM | [5] > 100 µM | [6] 36.6 µM | [18] 9.16 µM | [7] 36.6 µM | [8] 19.2 µM | [9] 64.4 µM | [10] > 100 µM | [19] 85.7 µM | [11] > 100 µM | [20] 55.3 µM | [12] > 100 µM | [13] > 100 µM | [14] > 100 µM | [15] > 100 µM | [16] > 100 µM

Nc1nc(Nc2ccc(Cl)cc2)sc1C(=O)c1cccs1
inactive: [1] 11.8 µM | [2] 19.1 µM | [3] 36.3 µM | [4] > 100 µM | [6] 14.7 µM | [17] 44.5 µM | [18] > 100 µM | [7] > 100 µM | [8] > 100 µM | [9] 99.3 µM | [10] 17.9 µM | [19] 25.9 µM | [20] > 100 µM | [12] 28.7 µM | [13] 21.6 µM | [14] 98.9 µM | [15] 19.9 µM | [16] 14.7 µM

COc1cc(S(=O)(=O)Nc2nc(-c3ccc(N4C(=O)/C(=C\c5cccs5)N=C4c4ccccc4)cc3)cs2)ccc1Cl
inactive: [1] > 100 µM | [2] > 100 µM | [3] > 100 µM | [4] > 100 µM | [6] 49.2 µM | [17] 28.1 µM | [18] 32.1 µM | [7] 43.1 µM | [8] 43.9 µM | [9] 23.6 µM | [10] > 100 µM | [19] 57.3 µM | [11] 46 µM | [12] 18.7 µM | [13] 49.9 µM | [14] 29.2 µM | [15] 66.2 µM | [16] 45.4 µM

C1=CC2(C=CC13O[C@H](C1CCCCC1)[C@@H](C1CCCCC1)O3)O[C@H](C1CCCCC1)[C@@H](C1CCCCC1)O2
inactive: [1] > 50 µM | [2] > 50 µM | [3] > 50 µM | [4] > 50 µM | [6] > 50 µM | [18] > 50 µM | [7] > 50 µM | [8] > 50 µM | [9] > 50 µM | [10] > 50 µM | [19] > 50 µM | [11] > 50 µM | [20] 23.2 µM | [12] > 50 µM | [13] > 50 µM | [14] > 50 µM | [15] > 50 µM | [16] > 50 µM

CCNC(=S)N/N=C/c1cc([N+](=O)[O-])ccc1O
inactive: [1] 20.5 µM | [2] 13.2 µM | [3] 25.8 µM | [4] 28.3 µM | [5] 16.2 µM | [6] 16.9 µM | [18] 15.7 µM | [7] 46.5 µM | [8] 8.73 µM | [9] 26.5 µM | [10] 9.27 µM | [19] 15.6 µM | [11] 18 µM | [12] 24.3 µM | [13] 35.4 µM | [14] > 100 µM | [15] 34.1 µM | [16] 16.9 µM

O=C(/C=C/c1ccc2c(c1)OCO2)c1ccccc(=O)c1O
inactive: [1] 8.32 µM | [2] 29.9 µM | [3] 8.24 µM | [4] 4.94 µM | [6] 6.05 µM | [17] 13.7 µM | [18] 19.9 µM | [7] 16.4 µM | [8] 6.27 µM | [9] 23.3 µM | [10] 3.28 µM | [19] 26.5 µM | [11] 4.3 µM | [20] 7.14 µM | [12] 3.42 µM | [14] 20.8 µM | [15] 8.71 µM | [16] 15.9 µM

CC1(C)CC(=O)c2c(nc3c(ccc4ccccc43)c2-c2ccc(NC(=O)CCCCC(=O)Nc3ccc(-c4c5c(nc6c4ccc4ccccc46)CC(C)(C)CC5=O)cc3)cc2)C1
inactive: [1] 42.2 µM | [3] 24 µM | [4] 26.7 µM | [6] 23.9 µM | [18] 17.6 µM | [7] 26.4 µM | [8] 13.7 µM | [10] 27.7 µM | [11] 26.1 µM | [20] 18.8 µM | [12] 28.2 µM | [13] 20.6 µM | [14] 33 µM | [15] 69.2 µM | [16] 28.4 µM

COCO[C@@H]1C[C@H]2C(=O)N(COC)c3ccccc3C(=O)N2C1
inactive: [1] > 100 µM | [2] > 100 µM | [3] > 100 µM | [4] > 100 µM | [6] > 100 µM | [18] > 100 µM | [7] > 100 µM | [8] > 100 µM | [9] > 100 µM | [19] > 100 µM | [11] > 100 µM | [12] > 100 µM | [13] > 100 µM | [14] > 100 µM | [15] > 100 µM | [16] > 100 µM

CCCC/N=C(/c1ccccc1)N1CCOCC1
inactive: [1] > 100 µM | [2] > 100 µM | [3] > 100 µM | [4] > 100 µM | [6] > 100 µM | [18] > 100 µM | [7] > 100 µM | [8] > 100 µM | [9] 57.9 µM | [10] > 100 µM | [11] > 100 µM | [20] > 100 µM | [12] > 100 µM | [13] > 100 µM | [14] > 100 µM | [15] > 100 µM | [16] > 100 µM

O=C(O)CCC(/N=C(\C(=N\C(CCC(=O)O)C(=O)O)c1ccccc1)c1ccccc1)C(=O)O (stereo not given)
inactive: [1] > 100 µM | [2] > 100 µM | [3] > 100 µM | [4] > 100 µM | [5] > 100 µM | [6] > 100 µM | [18] > 100 µM | [7] > 100 µM | [8] > 100 µM | [10] > 100 µM | [19] > 100 µM | [11] > 100 µM | [20] > 100 µM | [12] > 100 µM | [14] > 100 µM | [15] > 100 µM | [16] > 100 µM

CCc1oc2ccccc2c1C(=O)c1cc(Br)c(O)c(Br)c1 [BENZBROMARONE]
inactive: [1] 29.9 µM | [2] 20.5 µM | [3] 17.5 µM | [4] 20.9 µM | [6] 22.4 µM | [17] 24.1 µM | [18] 24.7 µM | [7] 30.2 µM | [8] 26.9 µM | [9] 19.1 µM | [10] 18.4 µM | [19] 30 µM | [11] 32.7 µM | [20] 29 µM | [12] 28.1 µM | [13] 17.1 µM | [14] 19.8 µM | [15] 36.1 µM | [16] 17.3 µM
